Experimental data: patent publication US6677368B2, “4-aryl substituted indolinones” (Sugen, Inc., priority 2000, dated 2004)

What was measured:
SRC = biological target: T1, SRC (Homo sapiens, UniProt P12931); assay: Src transphosphorylation assay; assay type: biochemical; settings: recombinant human Src, poly(Glu-Tyr) substrate
T1 construct: purchased UBI 14-117
Description: Src Transphosphorylation Assay
This assay is used to screen for inhibitors of the tyrosine kinase Src.
1. Coating buffer: PBS containing sodium azide (0.2 mg/ml).
3. Wash buffer: PBS containing 0.05% v/v Tween 20 (PBS-TWEEN)
5. ATP (40 [M)+MgCl2 (80 mM) in distilled water.
6. MgCl2 (80 mM) in distilled water (for no ATP blanks).
7. Test compounds, 10 mM in DMSO.
8. Assay Buffer: 100 mM HEPES, pH 7.4, containing 2 mM DTT, 0.2 mM sodium orthovanadate and 0.2 mgs/ml BSA.
9. Partially purified recombinant human Src (UBI (14-117)
10. Anti-phosphotyrosine (SUGEN rabbit polyclonal anti-PY).
11. HRP-linked goat anti-rabbit Ig (Biosource International #6430)
12. HRP substrate ABTS or Pierce Peroxidase substrate.
13. Corning ELISA plates.
1. Coat plates with 100 μl of 20 μg/ml poly(Glu-Tyr) (Sigma Cat. No.P0275) containing 0.01% sodium azide. Hold overnight at 4° C.
2. Block with 1% BSA at 100 μl/well for one hour at room temperature.
3. Plate test compounds (10 mM in DMSO) at 2 ul/well on a Costar plate ready for dilution with dH2O and plating to reaction plates.
4. Dilute Src kinase 1:10,000 in Reaction Buffer, for 5 plates prepare 25 ml as follows: 2.5 mls 1M HEPES pH7.4 (stored sterile at 4° C.), 21.85 ml distilled water, 0.1 ml 5% BSA, 0.5 ml 10 mM sodium orthovanadate (stored sterile at 4° C.), 50 μl 1.0M DTT (stored frozen at […]), and 2.5 μl Src Kinase (stored frozen at −80° C.).
5. Add 48 μl of distilled water to the 2 ∥l of each compound in the dilution plate then add 25 μl/well of this to the reaction plate.
6. Add 50 μl of […] to each reaction buffer well and then 25 μl ATP-MgCl2/well (MgCl2 only to no ATP blanks). Incubate at room temperature for 15 minutes on plate shaker. Stop reaction by adding 25 μl of 0.5M EDTA to each well.
7. Wash 4× with PBS-TWEEN.
8. […] Incubate with continuous shaking at room temperature for one hour.
9. Wash plates 4× with PBS-TWEEN.
10. Add 100 μl HPP-linked Ig (1:5,000) in PBS-TWEEN containing 0.5% BSA, 0.025% Non-fat milk powder, 100 μM sodium orthovanadate. Incubate with shaking at room temperature for one hour.
11. Wash plates 4× with PBS-TWEEN and then once with PBS.
12. Develop plate using ABTS or other peroxidase substrate.

MET = biological target: T2, MET (Homo sapiens, UniProt P08581); assay: MET transphosphorylation assay; assay type: biochemical; settings: GST fusion protein containing the Met kinase domain, poly(glu-tyr) substrate
T2 construct: Purified GST fusion protein containing the Met kinase domain, SUGEN, Inc
Description: MET TRANSPHOSPHORYLATION ASSAY
This assay is used to measure phosphotyrosine levels on a poly(glutamic acid:tyrosine, 4:1) substrate as a means for identifying agonists/antagonists of met transphosphorylation of the substrate.
1. Corning 96-well ELISA plates, Corning Catalog #25805-96.
2. Poly(glu-tyr), 4:1, Sigma, Cat. No; P 0275.
5. Blocking Buffer: Dissolve 25 g Bovine Serum Albumin, Sigma Cat. No A-7888, in 500 ml PBS, filter through a […] filter.
6. Purified GST fusion protein containing the Met kinase domain, SUGEN, Inc.
8. 10% aqueous (MilliQue H2O) DMSO.
9. 10 mM aqueous (dH2O) Adenosine-5′-triphosphate, Sigma Cat. No. A-5394.
10. 2×Kinase Dilution Buffer: for 100 ml, mix 10 mL 1M HEPES at pH 7.5 with 0.4 mL 5% BSA/PBS, 0.2 mL 0.1 M sodium orthovanadate and 1 mL 5M sodium chloride in 88.4 mL dH2O.
11. 4×ATP Reaction Mixture: for 10 mL, mix 0.4 mL 1 M manganese chloride and 0.02 mL 0.1 M ATP in 9.56 mL dH2O.
12. 4×Negative Controls Mixture: for 10 mL, mix 0.4 mL 1 M manganese chloride in 9.6 mL dH2O.
13. NUNC 96-well V bottom polypropylene plates, Applied Scientific Catalog #S-72092
15. Antibody Dilution Buffer: for 100 mL, mix 10 mL 5% BSA/PBS, 0.5 mL 5% Carnation® Instant Milk in PBS and 0.1 mL 0.1 M sodium orthovanadate in 88.4 mL TBST.
16. Rabbit polyclonal antophosphotyrosine antibody, SUGEN, Inc.
17. Goat anti-rabbit horseradish peroxidase conjugated antibody, Biosource, Inc.
18. ABTS Solution: for 1 L, mix 19.21 g citric acid, 35.49 g Na2HPO4 and 500 mg ABTS with sufficient dH2O to make 1 L.
19. ABTS/H2O2: mix 15 mL ABST solution with 2μL H2O2 five minutes before use.
1. Coat ELISA plates with 2 μg Poly(Glu-Tyr) in 100 μL PBS, hold overnight at 4° C.
2. Block plate with 150 μL of 5% BSA/PBS for 60 min.
3. Wash plate twice with PBS then once with 50 mM Hepes buffer pH 7.4.
4. Add 50 μl of the diluted kinase to all wells. (Purified kinase is diluted with Kinase Dilution Buffer. Final concentration should be 10 ng/well.)
5. Add 25 μL of the test compound (in 4% DMSO) or DMSO alone (4% in dH2O) for controls to plate.
6. Incubate the kinase/compound mixture for 15 minutes.
7. Add 25 μL of 40 mM MnCl2 to the negative control wells.
8. Add 25 μL ATP/MnCl2 mixture to the all other wells (except the negative controls). Incubate for 5 min.
9. Add 25 μL 500 mM EDTA to stop reaction.
10. Wash plate 3× with TBST.
11. Add 100 μL rabbit polyclonal anti-Ptyr diluted 1:10,000 in Antibody Dilution Buffer to each well. Incubate, with shaking, at room temperature for one hour.
12. Wash plate 3× with TBST.
13. Dilute Biosource HRP conjugated anti-rabbit antibody 1:6,000 in Antibody Dilution buffer. Add 100 μL per well and incubate at room temperature, with shaking, for one hour.
14. Wash plate 1× with PBS.
15. Add 100 μl of ABTS/H2O2 solution to each well.
16. If necessary, stop the development reaction with the addition of 100 μl of 0.2M HCl per well.
17. Read plate on Dynatech MR7000 ELISA reader with the test filter at 410 nM and the reference filter at 630 nM.

T1 sequence (P12931 whole entry): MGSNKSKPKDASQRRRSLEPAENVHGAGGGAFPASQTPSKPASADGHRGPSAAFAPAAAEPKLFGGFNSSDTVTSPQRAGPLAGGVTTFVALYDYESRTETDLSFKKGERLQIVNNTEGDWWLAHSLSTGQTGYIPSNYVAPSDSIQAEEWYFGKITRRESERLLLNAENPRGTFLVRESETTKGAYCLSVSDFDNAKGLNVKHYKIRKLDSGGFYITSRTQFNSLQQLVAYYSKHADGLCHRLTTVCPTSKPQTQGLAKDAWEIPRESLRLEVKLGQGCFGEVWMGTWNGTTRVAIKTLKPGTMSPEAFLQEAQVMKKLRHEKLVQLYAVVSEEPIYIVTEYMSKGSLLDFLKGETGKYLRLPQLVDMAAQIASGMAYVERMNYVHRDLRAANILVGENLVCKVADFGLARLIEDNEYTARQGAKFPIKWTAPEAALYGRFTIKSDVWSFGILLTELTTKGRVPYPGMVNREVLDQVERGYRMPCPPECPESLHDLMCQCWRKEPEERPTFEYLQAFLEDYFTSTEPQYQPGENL
T2 sequence (P08581 1078-1345 limits assumed): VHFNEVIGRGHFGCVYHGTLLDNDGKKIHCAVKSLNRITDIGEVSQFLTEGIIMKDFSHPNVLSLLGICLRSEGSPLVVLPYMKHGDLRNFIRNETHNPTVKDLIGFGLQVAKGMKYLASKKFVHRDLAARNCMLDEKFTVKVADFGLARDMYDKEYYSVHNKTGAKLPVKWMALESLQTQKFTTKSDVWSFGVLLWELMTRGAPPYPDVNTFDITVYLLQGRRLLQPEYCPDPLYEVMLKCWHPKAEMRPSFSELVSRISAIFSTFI

| Compound | IC50 (SRC) [nM] | IC50 (MET) [nM] |
| --- | --- | --- |
| CCN(CC)CCNC(=O)c1c(C)[nH]c(/C=C2\C(=O)Nc3cccc(-c4ccccc4)c32)c1C [Example 3, 2,4-Dimethyl-5-(2-oxo-4-phenyl-1,2-dihydro-indol-3-ylidenemethyl)-1H-pyrrole-3-carboxylic Acid (2-Diethylamino-ethyl)-amide] | 1020 | 78 |
| Cc1[nH]c(/C=C2\C(=O)Nc3cccc(-c4ccc(F)cc4)c32)c(C)c1C(=O)N1CCN(C)CC1 [Example 4, 3-[3,5-Dimethyl-4-(4-methyl-piperazine-1-carbonyl)-1H-pyrrol-2-ylmethylene]-4-(4-fluoro-phenyl)-1,3-dihydro-indol-2-one] | > 20000 | 700 |
| Cc1[nH]c(/C=C2\C(=O)Nc3cccc(-c4ccc(F)cc4)c32)c(C)c1C(=O)NCCN1CCCC1 [Example 6, 5-[4-(4-Fluoro-phenyl)-2-oxo-1,2-dihydro-indol-3-ylidenemethyl]-2,4-dimethyl-1H-pyrrole-3-carboxylic Acid (2-Pyrrolidin-1-yl-ethyl)-amide] | 4930 | 73 |
| Cc1cc(C(=O)N2CC[C@H](N(C)C)C2)c(/C=C2\C(=O)Nc3cccc(-c4ccc(F)cc4)c32)[nH]1 [Example 10, 3-[3-((S)-3-Dimethylamino-pyrrolidine-1-carbonyl)-5-methyl-1H-pyrrol-2-ylmethylene]-4-(4-fluoro-phenyl)-1,3-dihydro-indol-2-one] | 1820 | 230 |
| CCN(CC)CCNC(=O)c1c(C)[nH]c(/C=C2\C(=O)Nc3cccc(-c4cccc(F)c4)c32)c1C [Example 13, 5-[4-(3-Fluoro-phenyl)-2-oxo-1,2-dihydro-indol-3-ylidenemethyl]-2,4-dimethyl-1H-pyrrole-3-carboxylic Acid (2-Diethylamino-ethyl)-amide] | 1050 | 100 |
| Cc1[nH]c(/C=C2\C(=O)Nc3cccc(-c4cccc(F)c4)c32)c(C)c1C(=O)NCCn1ccnn1 [Example 15, 5-[4-(3-Fluoro-phenyl)-2-oxo-1,2-dihydro-indol-3-ylidenemethyl]-2,4-dimethyl-1H-pyrrole-3-carboxylic Acid (2-[1,2,3]Triazol-1-yl-ethyl)-amide] | 2270 | 370 |
| CCOC(=O)c1c(C)[nH]c(/C=C2\C(=O)Nc3cccc(-c4cccc(F)c4)c32)c1CCCN1CCN(C)CC1 [Example 18, 5-[4-(3-Fluoro-phenyl)-2-oxo-1,2-dihydro-indol-3-ylidenemethyl]-2-methyl-4-[3-(4-methyl-piperazin-1-yl)-propyl]-1H-pyrrole-3-carboxylic Acid Ethyl Ester] | 7810 | 270 |
| Cc1[nH]c(/C=C2\C(=O)Nc3cccc(-c4ccc(Cl)cc4)c32)c(C)c1C(=O)N1CCN(C)CC1 [Example 20, 4-(4-Chloro-phenyl)-3-[3,5-dimethyl-4-(4-methyl-piperazine-1-carbonyl)-1H-pyrrol-2-ylmethylene]-1,3-dihydro-indol-2-one] | 10400 | 520 |
| Cc1[nH]c(/C=C2\C(=O)Nc3cccc(-c4ccc(Cl)cc4)c32)c(C)c1C(=O)NCCN1CCCC1 [Example 22, 5-[4-(4-Chloro-phenyl)-2-oxo-1,2-dihydro-indol-3-ylidenemethyl]-2,4-dimethyl-1H-pyrrole-3-carboxylic Acid (2-Pyrrolidin-1-yl-ethyl)-amide] | 1580 | 140 |
| Cc1cc(C(=O)N2CC[C@@H](N(C)C)C2)c(/C=C2\C(=O)Nc3cccc(-c4ccc(Cl)cc4)c32)[nH]1 [Example 25, 4-(4-Chloro-phenyl)-3-[3-((R)-3-dimethylamino-pyrrolidine-1-carbonyl)-5-methyl-1H-pyrrol-2-ylmethylene]-1,3-dihydro-indol-2-one] | 9860 | 110 |
| Cc1cc(C(=O)N2C[C@@H](C)N[C@@H](C)C2)c(/C=C2\C(=O)Nc3cccc(-c4ccc(Cl)cc4)c32)[nH]1 [Example 27] | 13900 | 150 |
| CCN(CC)CCNC(=O)c1c(C)[nH]c(/C=C2\C(=O)Nc3cccc(-c4cccc(Cl)c4)c32)c1C [Example 29, 5-[4-(3-Chloro-phenyl)-2-oxo-1,2-dihydro-indol-3-ylidenemethyl]-2,4-dimethyl-1H-pyrrole-3-carboxylic Acid (2-Diethylamino-ethyl)-amide] | 1250 | 65 |
| Cc1cc(C(=O)N2CC[C@H](N(C)C)C2)c(/C=C2\C(=O)Nc3cccc(-c4cccc(Cl)c4)c32)[nH]1 [Example 32, 4-(3-Chloro-phenyl)-3-[3-((S)-3-dimethylamino-pyrrolidine-1-carbonyl)-5-methyl-1H-pyrrol-2-ylmethylene]-1,3-dihydro-indol-2-one] | 5370 | 120 |
| Cc1cc(C(=O)NCCn2ccnn2)c(/C=C2\C(=O)Nc3cccc(-c4cccc(Cl)c4)c32)[nH]1 [Example 34, 2-[4-(3-Chloro-phenyl)-2-oxo-1,2-dihydro-indol-3-ylidenemethyl]-5-methyl-1H-pyrrole-3-carboxylic Acid (2-[1,2,3]Triazol-1-yl-ethyl)-amide] | 7260 | 130 |
| Cc1cc(C(=O)N2C[C@@H](C)N[C@@H](C)C2)c(/C=C2\C(=O)Nc3cccc(-c4cccc(Cl)c4)c32)[nH]1 [Example 35, 4-(3-Chloro-phenyl)-3-[3-((cis)-3,5-dimethyl-piperazine-1-carbonyl)-5-methyl-1H-pyrrol-2-ylmethylene]-1,3-dihydro-indol-2-one] | 9720 | 340 |
